# What was measured:
# IRAK4 enzyme = target: T1, IRAK4 enzyme (Homo sapiens, UniProt Q9NWZ3); test: IRAK4 enzyme activity inhibition (ADP-Glo, Promega kit); type: biochemical; details: for inhibition at 0.1 µM: test compound 0.1 uM; for inhibition at 1 µM: test compound 1 uM
# T1 construct: purchased Promega V2621
# T1 sequence (Q9NWZ3 1-460): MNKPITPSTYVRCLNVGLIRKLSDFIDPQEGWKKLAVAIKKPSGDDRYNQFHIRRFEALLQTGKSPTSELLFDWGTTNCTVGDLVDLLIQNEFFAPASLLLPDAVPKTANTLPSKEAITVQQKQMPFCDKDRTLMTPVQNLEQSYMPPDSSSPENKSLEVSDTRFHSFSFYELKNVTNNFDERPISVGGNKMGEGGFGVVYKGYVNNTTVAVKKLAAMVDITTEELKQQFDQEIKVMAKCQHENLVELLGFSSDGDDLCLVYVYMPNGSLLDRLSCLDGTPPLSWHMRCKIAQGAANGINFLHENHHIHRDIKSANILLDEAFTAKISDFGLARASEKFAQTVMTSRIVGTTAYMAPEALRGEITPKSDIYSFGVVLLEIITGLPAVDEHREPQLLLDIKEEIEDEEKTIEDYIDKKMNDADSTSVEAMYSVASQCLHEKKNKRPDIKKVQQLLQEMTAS
# Description: An experiment on IRAK4 enzyme activity inhibition of the compound of the present invention was conducted.
# An IRAK4 enzyme kit (purchased from Promega, product number: V2621) was used to dilute a mixed solution between 0.1 µg/µL of myelin basic protein (MBP), which is an enzyme-reactive substrate, and 1.25 mM of ATP with a reaction buffer (40 mM Tris-HCl, pH 7.5; 20 mM MgCl2; 0.1 mg/mL BSA; 50 µM DTT) according to the instructions, so as to dispense 2 µL in a 384-well white plate, and then to add 1 µL of a test compound, which was gradient diluted starting from 1 mM, to a 384-well plate. After that, an IRAK4 enzyme was diluted with a reaction buffer to a final concentration of 5 ng/µL, then 2 µL/well was dispensed into a 384-well white plate and reacted at 37°C for 60 minutes. After completion of a reaction, an ADP-GloTM enzyme test kit (purchased from Promega, product number: V9102) was used to add 5 µL of ADP-Glo reaction reagent and cause a reaction at 37°C for 40 minutes, and then 10 µL of enzyme chromogenic reagent was added again to measure a luminescence signal using equipment for measuring absorbance (THECAN, Microplate Reader). An activity inhibition rate was calculated from a measured value, and a 50% inhibition concentration (IC50 value) was analyzed through a non-linear regression analysis based on the % inhibition for each concentration of the test compound, and is shown in Table 2.
# IRAK1 enzyme = target: T2, IRAK1 enzyme (Homo sapiens, UniProt P51617); test: IRAK1 enzyme activity inhibition (ADP-Glo, Promega kit); type: biochemical; details: for inhibition at 0.1 µM: test compound 0.1 uM; for inhibition at 1 µM: test compound 1 uM
# T2 construct: purchased Promega VA7477
# Description: An experiment on IRAK1 enzyme activity inhibition of the compound of the present invention was conducted.
# An IRAK1 enzyme kit (purchased from Promega, product number: VA7477) was used to dilute a mixed solution between 0.1 µg/µL of protein kinase B (AKT), which is an enzyme-reactive substrate, and 1.25 mM of ATP with a reaction buffer (40 mM Tris-HCl, pH 7.5; 20 mM MgCl2; 0.1 mg/mL BSA; 50 µM DTT) according to the instructions, so as to dispense 2 µL in a 384-well white plate, and then to add 1 µL of a test compound, which was gradient diluted starting from 1 mM, to a 384-well white plate. After that, an IRAK1 enzyme was diluted with a reaction buffer to a final concentration of 5 ng/µL, then 2 µL/well was dispensed into a 384-well white plate and reacted at 37°C for 60 minutes. After completion of a reaction, an ADP-GloTM enzyme test kit (purchased from Promega, product number: V9102) was used to add 5 µL of ADP-Glo reaction reagent and cause a reaction at 37°C for 40 minutes, and then 10 µL of enzyme chromogenic reagent was added again to measure a luminescence signal using equipment for measuring absorbance (THECAN, Microplate Reader). An activity inhibition rate was calculated from a measured value, and a 50% inhibition concentration (IC50 value) was analyzed through a non-linear regression analysis based on the % inhibition for each concentration of the test compound, and is shown in Table 3.
# T2 sequence (P51617 whole entry): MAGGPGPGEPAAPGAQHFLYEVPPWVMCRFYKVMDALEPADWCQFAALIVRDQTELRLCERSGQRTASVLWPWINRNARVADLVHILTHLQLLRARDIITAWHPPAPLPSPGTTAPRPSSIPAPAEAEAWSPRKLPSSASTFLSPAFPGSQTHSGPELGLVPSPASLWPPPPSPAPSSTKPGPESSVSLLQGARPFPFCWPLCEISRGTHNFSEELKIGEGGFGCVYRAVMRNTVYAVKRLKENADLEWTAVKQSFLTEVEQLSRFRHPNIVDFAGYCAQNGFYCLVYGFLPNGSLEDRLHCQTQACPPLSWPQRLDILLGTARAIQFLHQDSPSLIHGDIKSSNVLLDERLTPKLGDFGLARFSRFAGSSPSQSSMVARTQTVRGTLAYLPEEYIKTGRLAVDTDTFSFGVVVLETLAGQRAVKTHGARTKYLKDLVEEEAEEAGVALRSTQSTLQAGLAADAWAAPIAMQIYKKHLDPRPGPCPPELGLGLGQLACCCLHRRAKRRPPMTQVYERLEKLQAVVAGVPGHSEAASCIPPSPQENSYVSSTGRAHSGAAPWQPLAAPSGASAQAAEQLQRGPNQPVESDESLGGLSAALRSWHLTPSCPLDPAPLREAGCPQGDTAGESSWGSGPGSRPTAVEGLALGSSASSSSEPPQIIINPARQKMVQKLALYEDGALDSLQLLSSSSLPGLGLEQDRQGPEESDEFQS
Compound,inhibition at 0.1 µM (IRAK4 enzyme) [%],inhibition at 0.1 µM (IRAK1 enzyme) [%],inhibition at 1 µM (IRAK1 enzyme) [%],inhibition at 1 µM (IRAK4 enzyme) [%],IC50 (IRAK4 enzyme) [nM]
"O=C(Nc1cc2cn(CCN3CCOCC3)nc2cc1-c1ccc(F)cc1)c1cccc([N+](=O)[O-])c1 [Example 34, N-(6-(4-fluorophenyl)-2-(2-morpholinoethyl)-2H-indazol-5-yl)-3-nitrobenzamide]",69.4,4.6,17.4,88.2,
"CS(=O)(=O)CCn1cc2cc(NC(=O)c3cccc(S(N)(=O)=O)c3)c(N3CCOCC3)cc2n1 [Example 53, N-(2-(2-(methylsulfonyl)ethyl)-6-morpholino-2H-indazol-5-yl)-3-sulfamoylbenzamide]",2.7,13.9,,,
"CC(C)(O)CCn1cc2cc(NC(=O)c3cccc([N+](=O)[O-])c3)cc(-c3ccoc3)c2n1 [Example 16, N-(7-(furan-3-yl)-2-(3-hydroxy-3-methylbutyl)-2H-indazol-5-yl)-3-nitrobenzamide]",48.8,,17.2,71,
"NC(=O)COCCn1cc2cc(NC(=O)c3cccc(S(N)(=O)=O)c3)c(N3CCOCC3)cc2n1 [Example 17, N-(2-(2-(2-amino-2-oxoethoxy)ethyl)-6-morpholino-2H-indazol-5-yl)-3-sulfamoylbenzamide]",76.7,33.1,63.4,,330
"CNC(=O)[C@@H](C)NC(=O)c1cncc(-c2cc3nn(CCC(C)(C)O)cc3cc2NC(=O)c2cccc(S(N)(=O)=O)c2)c1 [Example 51, (R)-5-(2-(3-hydroxy-3-methylbutyl)-5-(3-sulfamoylbenzamido)-2H-indazol-6-yl)-N-(1-(methylamino)-1-oxopropan-2-yl)nicotinamide]",48.8,0,,,
"CN(C)c1cc2nn(CCC(C)(C)O)cc2cc1NC(=O)c1cccc([N+](=O)[O-])c1 [Example 38, N-(6-(dimethylamino)-2-(3-hydroxy-3-methylbutyl)-2H-indazol-5-yl)-3-nitrobenzamide]",87.9,4.6,,,5.1
"CS(=O)(=O)CCn1cc2cc(NC(=O)c3cccc(S(=O)(=O)N4CCOCC4)c3)c(N3CCOCC3)cc2n1 [Example 14, N-(2-(2-(methylsulfonyl)ethyl)-6-morpholino-2H-indazol-5-yl)-3-(morpholinosulfonyl)benzamide]",21.1,,0,35.6,
"CC(C)(O)CCn1cc2cc(NC(=O)c3cccc([N+](=O)[O-])c3)c(-c3ccc(C(=O)NCC(N)=O)cc3)cc2n1 [Example 43, N-(6-(4-((2-amino-2-oxoethyl)carbamoyl)phenyl)-2-(3-hydroxy-3-methylbutyl)-2H-indazol-5-yl)-3-nitrobenzamide]",63,1.7,,,
"COC(=O)CCNC(=O)c1cncc(-c2cc3nn(CCC(C)(C)O)cc3cc2NC(=O)c2cccc(S(N)(=O)=O)c2)c1 [Example 48, Methyl 3-(5-(2-(3-hydroxy-3-methylbutyl)-5-(3-sulfamoylbenzamido)-2H-indazol-6-yl)nicotinamido)propanoate]",56.7,39.7,,,
"CS(=O)(=O)CCn1ncc2cc(NC(=O)c3cccc([N+](=O)[O-])c3)c(N3CCOCC3)cc21 [Example 52, N-(1-(2-(methylsulfonyl)ethyl)-6-morpholino-1H-indazol-5-yl)-3-nitrobenzamide]",21.2,0,,,
"CC(C)(O)CCn1cc2cc(NC(=O)c3cccc([N+](=O)[O-])c3)c(-c3cccc(C(=O)N4CCOCC4)c3)cc2n1 [Example 35, N-(2-(3-hydroxy-3-methylbutyl)-6-(3-(morpholine-4-carbonyl)phenyl)-2H-indazol-5-yl)-3-nitrobenzamide]",64.6,33.1,60.8,,
"CCOC(=O)[C@H](NC(=O)c1ccc(-c2cc3nn(CCC(C)(C)O)cc3cc2NC(=O)c2cccc(S(N)(=O)=O)c2)cc1)C(C)C [Example 47, Ethyl (4-(2-(3-hydroxy-3-methylbutyl)-5-(3-sulfamoylbenzamido)-2H-indazol-6-yl)benzoyl)-D-valinate]",56.8,1.3,,,
"CC(C)(O)Cn1cc2cc(NC(=O)c3cccc([N+](=O)[O-])c3)c(-c3ccsc3)cc2n1 [Example 50, N-(2-(2-hydroxy-2-methylpropyl)-6-(thiophen-3-yl)-2H-indazol-5-yl)-3-nitrobenzamide]",55.1,,9.6,68.8,
"NC(=O)COCCn1cc2cc(NC(=O)c3cccc(C(N)=O)c3)c(N3CCOCC3)cc2n1 [Example 18, N-(2-(2-(2-amino-2-oxoethoxy)ethyl)-6-morpholino-2H-indazol-5-yl)isophthalamide]",54.8,,23.2,65.6,

# More lines, now with the values ahead:
inhibition at 0.1 µM (IRAK4 enzyme) [%],inhibition at 0.1 µM (IRAK1 enzyme) [%],inhibition at 1 µM (IRAK1 enzyme) [%],inhibition at 1 µM (IRAK4 enzyme) [%],IC50 (IRAK4 enzyme) [nM],Compound
69.7,6.5,11.2,,,"CC(C)(O)CCn1cc2cc(NC(=O)c3cccc([N+](=O)[O-])c3)c(N3CCSCC3)cc2n1 [Example 40, N-(2-(3-hydroxy-3-methylbutyl)-6-thiomorpholino-2H-indazol-5-yl)-3-nitrobenzamide]"
71.3,31.7,40.2,,192,"CC(C)(O)CCn1cc2cc(NC(=O)c3ccc(F)c([N+](=O)[O-])c3)c(N3CCOCC3)cc2n1 [Example 26, 4-fluoro-N-(2-(3-hydroxy-3-methylbutyl)-6-morpholino-2H-indazol-5-yl)-3-nitrobenzamide]"
71.3,24,39.3,95.6,22.1,"CC(C)(O)CCn1cc2cc(NC(=O)c3cccc(C(N)=O)c3)c(N3CCSCC3)cc2n1 [Example 33, N-(2-(3-hydroxy-3-methylbutyl)-6-thiomorpholino-2H-indazol-5-yl)isophthalamide]"
81.3,24.9,54.6,,78.5,"CC(C)(O)CCn1cc2cc(NC(=O)c3cccc(C(N)=O)c3)c(N3CCOCC3)cc2n1 [Example 25, N-(2-(3-hydroxy-3-methylbutyl)-6-morpholino-2H-indazol-5-yl)isophthalamide]"
88.3,30.3,47.2,,40.3,"CC(C)(O)CCn1cc2cc(NC(=O)c3cccc([N+](=O)[O-])c3F)c(N3CCOCC3)cc2n1 [Example 22, 2-fluoro-N-(2-(3-hydroxy-3-methylbutyl)-6-morpholino-2H-indazol-5-yl)-3-nitrobenzamide]"
59.6,,0,75,,"CC(C)(O)Cn1cc2cc(NC(=O)c3cccc([N+](=O)[O-])c3)c(N3CCSCC3)cc2n1 [Example 45, N-(2-(2-hydroxy-2-methylpropyl)-6-thiomorpholino-2H-indazol-5-yl)-3-nitrobenzamide]"
82.8,8.6,,,0.88,"CC(C)(O)CCn1cc2cc(NC(=O)c3cccc([N+](=O)[O-])c3)c(N3CCC(C(C)(C)O)CC3)cc2n1 [Example 30, N-(2-(3-hydroxy-3-methylbutyl)-6-(4-(2-hydroxypropan-2-yl)piperidin-1-yl)-2H-indazol-5-yl)-3-nitrobenzamide]"
